Results taken from patent US20230257396A1, “MACROCYCLES AND THEIR USE” (BLOSSOMHILL THERAPEUTICS, INC., priority 2020, published 2023).
Changes are numbered by the printed parent chain.

Tests used:
Test in all cases: KINOMEscan kinase binding assay (Eurofins/DiscoveRx), % Ctrl
Conditions in all cases: 1 μM
[1] = target: T1, kinases (Homo sapiens, UniProt P00533, DEL752-759)
T1 construct: purchased Eurofins/DiscoveRx; host or cells: E. coli BL21-derived host (T7 phage display) for most kinases; HEK-293 for the rest
How it was run: (§1)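 Competition binding, 1 h RT: phage-tagged or HEK-293-expressed DNA-tagged kinase + immobilized ligand + compound. Eluate kinase by qPCR. % Ctrl = (test − positive ctrl)/(negative ctrl − positive ctrl) × 100; lower means stronger binding.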

[2] = target: T2, kinases (Homo sapiens, UniProt P00533, G719C)
T2 construct: purchased Eurofins/DiscoveRx; host or cells: E. coli BL21-derived host (T7 phage display) for most kinases; HEK-293 for the rest
How it was run: as §1

[3] = target: T3, kinases (Homo sapiens, UniProt P00533, G719S)
T3 construct: purchased Eurofins/DiscoveRx; host or cells: E. coli BL21-derived host (T7 phage display) for most kinases; HEK-293 for the rest
How it was run: as §1

[4] = target: T4, kinases (Homo sapiens, UniProt P10721, V559D/V654A)
T4 construct: purchased Eurofins/DiscoveRx; host or cells: E. coli BL21-derived host (T7 phage display) for most kinases; HEK-293 for the rest
How it was run: as §1

[5] = target: T5, kinases (Homo sapiens, UniProt P36888, D835V)
T5 construct: purchased Eurofins/DiscoveRx; host or cells: E. coli BL21-derived host (T7 phage display) for most kinases; HEK-293 for the rest
T5 sequence (P36888 27-993 D835V): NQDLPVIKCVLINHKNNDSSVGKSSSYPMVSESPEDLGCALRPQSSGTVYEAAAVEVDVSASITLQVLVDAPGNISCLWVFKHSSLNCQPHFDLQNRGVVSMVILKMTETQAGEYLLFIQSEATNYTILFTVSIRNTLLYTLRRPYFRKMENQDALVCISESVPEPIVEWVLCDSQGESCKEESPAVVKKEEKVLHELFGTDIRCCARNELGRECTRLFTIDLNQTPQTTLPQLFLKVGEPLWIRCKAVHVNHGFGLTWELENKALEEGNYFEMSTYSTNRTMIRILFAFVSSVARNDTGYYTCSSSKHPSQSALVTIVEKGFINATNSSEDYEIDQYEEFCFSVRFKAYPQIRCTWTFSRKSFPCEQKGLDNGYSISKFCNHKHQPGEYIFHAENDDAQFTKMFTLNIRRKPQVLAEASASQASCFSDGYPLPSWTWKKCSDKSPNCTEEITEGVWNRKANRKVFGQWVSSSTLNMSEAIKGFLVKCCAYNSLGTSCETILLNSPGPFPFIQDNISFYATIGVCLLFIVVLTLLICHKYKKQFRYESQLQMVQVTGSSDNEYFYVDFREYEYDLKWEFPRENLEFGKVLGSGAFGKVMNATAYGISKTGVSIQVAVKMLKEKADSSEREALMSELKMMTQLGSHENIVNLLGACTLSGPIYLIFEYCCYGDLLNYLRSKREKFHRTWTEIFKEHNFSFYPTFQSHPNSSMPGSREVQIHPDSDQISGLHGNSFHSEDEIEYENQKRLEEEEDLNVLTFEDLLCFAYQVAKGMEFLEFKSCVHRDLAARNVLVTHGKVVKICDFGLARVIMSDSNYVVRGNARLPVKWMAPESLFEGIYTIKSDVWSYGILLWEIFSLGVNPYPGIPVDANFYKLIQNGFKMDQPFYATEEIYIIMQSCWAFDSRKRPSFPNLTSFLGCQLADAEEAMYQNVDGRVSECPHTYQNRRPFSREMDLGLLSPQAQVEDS
How it was run: as §1

[6] = target: T6, kinases (Homo sapiens, UniProt P36888, R834Q)
T6 construct: purchased Eurofins/DiscoveRx; host or cells: E. coli BL21-derived host (T7 phage display) for most kinases; HEK-293 for the rest
T6 sequence (P36888 27-993 R834Q): T5 sequence (P36888 27-993 D835V) with R808Q, V809D
How it was run: as §1

T4 sequence (P10721 26-976 V559D/V654A): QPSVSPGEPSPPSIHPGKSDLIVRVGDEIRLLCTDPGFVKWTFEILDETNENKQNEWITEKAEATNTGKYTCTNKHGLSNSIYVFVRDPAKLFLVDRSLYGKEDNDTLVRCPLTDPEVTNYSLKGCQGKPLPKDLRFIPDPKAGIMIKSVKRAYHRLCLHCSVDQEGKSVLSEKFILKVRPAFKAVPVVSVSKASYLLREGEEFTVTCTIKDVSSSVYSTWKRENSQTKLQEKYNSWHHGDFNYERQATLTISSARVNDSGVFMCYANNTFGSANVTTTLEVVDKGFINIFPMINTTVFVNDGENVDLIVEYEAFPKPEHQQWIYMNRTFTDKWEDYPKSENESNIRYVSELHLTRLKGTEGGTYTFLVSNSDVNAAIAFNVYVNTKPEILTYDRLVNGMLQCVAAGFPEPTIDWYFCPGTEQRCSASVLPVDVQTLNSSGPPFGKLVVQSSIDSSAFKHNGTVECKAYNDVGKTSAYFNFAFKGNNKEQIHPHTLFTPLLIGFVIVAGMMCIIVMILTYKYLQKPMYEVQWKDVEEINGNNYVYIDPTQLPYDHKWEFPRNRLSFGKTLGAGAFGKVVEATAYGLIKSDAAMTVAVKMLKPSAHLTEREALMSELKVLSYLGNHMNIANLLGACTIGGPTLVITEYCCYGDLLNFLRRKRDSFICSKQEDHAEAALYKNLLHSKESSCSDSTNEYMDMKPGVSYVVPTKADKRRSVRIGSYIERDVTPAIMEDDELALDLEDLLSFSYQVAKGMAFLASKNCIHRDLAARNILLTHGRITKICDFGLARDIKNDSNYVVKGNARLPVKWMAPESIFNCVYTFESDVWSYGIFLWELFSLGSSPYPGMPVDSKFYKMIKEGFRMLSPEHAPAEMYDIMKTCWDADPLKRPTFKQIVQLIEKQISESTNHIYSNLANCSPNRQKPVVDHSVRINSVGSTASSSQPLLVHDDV

% Ctrl, EGFR(S752-I759del) ([1]; EGFR(S752-I759del)) [% Ctrl] | % Ctrl, EGFR(G719C) ([2]; EGFR(G719C)) [% Ctrl] | % Ctrl, EGFR(G719S) ([3]; EGFR(G719S)) [% Ctrl] | % Ctrl, KIT(V559D, V654A) ([4]; KIT(V559D, V654A)) [% Ctrl] | % Ctrl, FLT3(D835V) ([5]; FLT3(D835V)) [% Ctrl] | % Ctrl, FLT3(R834Q) ([6]; FLT3(R834Q)) [% Ctrl] | % Ctrl, EGFR(S752-I759del) ([1]; target EGFR(S752-I759del)) [% Ctrl] | % Ctrl, EGFR(G719C) ([2]; target EGFR(G719C)) [% Ctrl] | % Ctrl, EGFR(G719S) ([3]; target EGFR(G719S)) [% Ctrl] | % Ctrl, KIT(V559D, V654A) ([4]; target KIT(V559D, V654A)) [% Ctrl] | % Ctrl, FLT3(D835V) ([5]; target FLT3(D835V)) [% Ctrl] | % Ctrl, FLT3(R834Q) ([6]; target FLT3(R834Q)) [% Ctrl] | Compound
91 | 92 | 92 | 100 | 27 | 85 | – | – | – | – | – | – | Cc1cc2c([nH]1)/C=C1\C(=O)Nc3ccc(cc31)-c1ccnn1CCNCCNC2=O [Ex. 43, [19a(20)Z]-2-methyl-5,6,7,8,9,10-hexahydro-15,17-(ethanediylidene)pyrazolo[1,5-g]dipyrrolo[3,4-k:2′,3′-n][1,4,7]triazacyclohexadecine-4,19(1H,18H)-dione]
– | – | – | – | – | – | 84 | 68 | 67 | 22 | 1.1 | 25 | Cc1cc2c([nH]1)/C=C1\C(=O)Nc3cnc(cc31)-c1cn[nH]c1CNCCN(C)C2=O [Ex. 55, [3a(4)Z]-6,9-dimethyl-9,10,11,12,13,14-hexahydro-17,1-(azenometheno)pyrazolo[4,3-m]dipyrrolo[3,2-f:3′,4′-i][1,4]diazacyclopentadecine-3,8(2,5H)-dione]
90 | 100 | 98 | 67 | 3.7 | 75 | – | – | – | – | – | – | Cc1cc2c([nH]1)/C=C1\C(=O)Nc3ccc(cc31)O[C@@H](C)COCCN(C)C2=O [Ex. 92, [10S,16a(17)Z]-2,5,10-trimethyl-6,7,9,10-tetrahydro-1H-12,14-(ethanediylidene)dipyrrolo[3,2-i:3′,4′-l][1,4,7]dioxazacyclopentadecine-4,16(5H,15H)-dione]
68 | 87 | 97 | 7.7 | 0 | 0 | – | – | – | – | – | – | Cc1cc2c([nH]1)/C=C1\C(=O)Nc3ccc(cc31)-c1cnn(C)c1COCCN(C)C2=O [Ex. 124, [3a(4)Z]-6,9,14-trimethyl-10,11,13,14-tetrahydro-2H-1,17-(ethanediylidene)pyrazolo[4,3-m]dipyrrolo[3,2-f:3′,4′-i][1,4]oxazacyclopentadecine-3,8(5H,9H)-dione]
73 | 8 | 88 | 6.7 | 0.25 | 0.3 | – | – | – | – | – | – | Cc1cc2c([nH]1)/C=C1\C(=O)Nc3ccc(cc31)-c1cnn(C)c1CNCCN(C)C2=O [Ex. 125, [3a(4)Z]-6,9,14-trimethyl-9,10,11,12,13,14-hexahydro-1,17-(ethanediylidene)pyrazolo[4,3-m]dipyrrolo[3,2-f:3′,4′-i][1,4]diazacyclopentadecine-3,8(2H,5H)-dione]
32 | 86 | 57 | 0.4 | 0 | 0 | – | – | – | – | – | – | Cc1cc2c([nH]1)/C=C1\C(=O)Nc3ccc(cc31)-c1cnn(C)c1CN(C)CCN(C)C2=O [Ex. 126, [3a(4)Z]-6,9,12,14-tetramethyl-9,10,11,12,13,14-hexahydro-1,17-(ethanediylidene)pyrazolo[4,3-m]dipyrrolo[3,2-f:3′,4′-i][1,4]diazacyclopentadecine-3,8(2H,5H)-dione]
57 | 90 | 72 | 89 | 0.15 | 13 | – | – | – | – | – | – | Cc1cc2c([nH]1)/C=C1\C(=O)Nc3ccc(cc31)-c1c(C)n[nH]c1CNCCN(C)C2=O [Ex. 127, [3a(4)Z]-6,9,16-trimethyl-9,10,11,12,13,14-hexahydro-1,17-(ethanediylidene)pyrazolo[4,3-m]dipyrrolo[3,2-f:3′,4′-i][1,4]diazacyclopentadecine-3,8(2H,5H)-dione]
98 | 97 | 97 | 100 | 1.7 | 68 | – | – | – | – | – | – | Cc1cc2c([nH]1)/C=C1\C(=O)Nc3ccc(cc31)-c1c(noc1C)COCCN(C)C2=O [Ex. 128, [3a(4)Z]-6,9,16-trimethyl-1,11-dihydro-2H,13H-1,17-(ethanediylidene)[1,4]oxazolo[4,3-m]dipyrrolo[3,2-f:3′,4′-i][1,4]oxazacyclopentadecine-3,8(5H,9H)-dione]
78 | 100 | 97 | 98 | 17 | 84 | – | – | – | – | – | – | Cc1cc2c([nH]1)/C=C1\C(=O)Nc3ccc(cc31)OCCOCCNC2=O [Ex. 129, [16a(17)Z]-2-methyl-6,7,9,10-tetrahydro-1H-12,14-(ethanediylidene)dipyrrolo[3,2-i:3′,4′-l][1,4,7]dioxazacyclopentadecine-4,16(5H,15H)-dione]
70 | 93 | 80 | 12 | 0 | 6.6 | – | – | – | – | – | – | Cc1cc2c([nH]1)/C=C1\C(=O)Nc3cc(Cl)c(cc31)OCCOCCN(C)C2=O [Ex. 131, [16a(17)Z]-19-chloro-2,5-dimethyl-6,7,9,10-tetrahydro-1H-12,14-(ethanediylidene)dipyrrolo[3,2-i:3′,4′-l][1,4,7]dioxazacyclopentadecine-4,16(5H,15H)-dione]
